Reference: patent US20230372346A1, “TREATMENT REGIMENS FOR EXON-20 INSERTION MUTANT EGFR CANCERS” (CULLINAN PEARL CORP., priority 2020, published 2023)
“Also recorded” adds a separate entry of the source. Read-outs that look alike come from different tables or passages of the source.

Tests used:
[1] = test system: mutant EGFRs that possess L718Q mutation in exon 18 in combination with ex19del+T790M or L858R+T790M; conditions: cited from earlier work
[2] = test system: KRAS mutant cell lines, NCI-H23 cells, and NCI-H460 cells; conditions: EGFR-independent cell growth; cited from earlier work
WT EGFR = WT EGFR (Homo sapiens, UniProt P00533); conditions: cited from earlier work
[3] = test system: subcutaneously-implanted tumors expressing EGFR with G719A+T790M mutations; conditions: cited from earlier work
[4] = test system: mutant EGFRs that possess in-frame insertion mutations in exon 20; conditions: A763_Y764insFQEA, V769_D770insASV, D770_N771insG, D770_N771insSVD, H773_V774insNPH, H773_V774insPH; cited from earlier work
[5] = test system: Ba/F3 harboring wild type EGFR; conditions: cited from earlier work
[6] = test system: mutant EGFRs that possess mutations in exon 18 or exon 21; conditions: cited from earlier work
[7] = test system: cells expressing EGFR with exon 20 insertion mutations; conditions: cells expressing EGFR with exon 20 insertion mutations compared with cells expressing WT EGFR; cited from earlier work
[8] = test system: mutant EGFRs that possess mutations at L792 (L792H, L792F, L792Y) in exon 20 in combination with ex19del+T790M or L858R+T790M; conditions: cited from earlier work
[9] = test system: phosphorylation of EGFR and its downstream effectors; conditions: cited from earlier work
[10] = test system: EGFR and EGFR mutants that harbor an exon 20 insertion mutation; conditions: EGFR and exon 20 insertion mutants; cited from earlier work
[11] = Phase 1/2a study, pharmacokinetics; assay type: in vivo, human
Procedure: (§1) This is a Phase 1/2a, open-label, multicenter, first-in-human trial to evaluate the safety and tolerability, PK, PD, and preliminary efficacy of CLN-081 in patients with non-small cell lung cancer (NSCLC) harboring epidermal growth factor receptor (EGFR) exon 20 insertion mutations.
PK analysis has been performed with CLN-081 plasma concentrations determined at pre-dose, 0.5, 1, 2, 3, 4, 6, 8 and 24 hour % post initial dose on Cycle (C) I Day (D) I and C1D15. […] CLN-081 has typically been rapidly absorbed with tmax values ranging from 0.5 to 2 hours and a mean average terminal phase elimination half-life (t1/2) of approximately 4 hours.

[12] = Phase 1/2a study, safety and adverse events (CTCAE v5); assay type: in vivo, human
Description: as §1
DLTs will be determined based on the incidence and intensity of AEs related to CLN-081 (excluding toxicities clearly related to disease progression or other inter-current illness) as defined below. Dose escalation decisions will be determined based on DLT that occur during the 21 days after initiation of CLN-081 dosing. AEs meeting the definition of a DLT that are observed after 21 days will be made available to the SRC in case a pattern of late toxicity emerges. Toxicity will be graded by the Common Toxicity Criteria for Adverse Events (CTCAE) v5.0. Patients who experience AEs meeting the criteria for DLT should pause treatment with CLN-081 pending management and resolution of the event, and assessment of the relationship of the AE to CLN-081 administration.
Safety and tolerability will be assessed by the incidence and severity of AEs as determined by CTCAE v5.

[13] = test system: Ba/F3 cell lines harboring EGFR with mutations in exon 18 or exon 21; conditions: cited from earlier work
[14] = test system: subcutaneously-implanted tumors expressing EGFR with exon 20 insertions; conditions: cited from earlier work
[15] = baseline ex19del+T790M or L858R+T790M
[16] = G719A, G719S, G719C, E709K, E709A, L861Q
[17] = unbound, 100 mg BID, patient 0102-001
[18] = unbound, 100 mg BID, patient 0104-005
[19] = unbound, 100 mg BID, patient 0701-001
[20] = 44/45 patients, all dose levels

Chain of WT EGFR (P00533 25-1210): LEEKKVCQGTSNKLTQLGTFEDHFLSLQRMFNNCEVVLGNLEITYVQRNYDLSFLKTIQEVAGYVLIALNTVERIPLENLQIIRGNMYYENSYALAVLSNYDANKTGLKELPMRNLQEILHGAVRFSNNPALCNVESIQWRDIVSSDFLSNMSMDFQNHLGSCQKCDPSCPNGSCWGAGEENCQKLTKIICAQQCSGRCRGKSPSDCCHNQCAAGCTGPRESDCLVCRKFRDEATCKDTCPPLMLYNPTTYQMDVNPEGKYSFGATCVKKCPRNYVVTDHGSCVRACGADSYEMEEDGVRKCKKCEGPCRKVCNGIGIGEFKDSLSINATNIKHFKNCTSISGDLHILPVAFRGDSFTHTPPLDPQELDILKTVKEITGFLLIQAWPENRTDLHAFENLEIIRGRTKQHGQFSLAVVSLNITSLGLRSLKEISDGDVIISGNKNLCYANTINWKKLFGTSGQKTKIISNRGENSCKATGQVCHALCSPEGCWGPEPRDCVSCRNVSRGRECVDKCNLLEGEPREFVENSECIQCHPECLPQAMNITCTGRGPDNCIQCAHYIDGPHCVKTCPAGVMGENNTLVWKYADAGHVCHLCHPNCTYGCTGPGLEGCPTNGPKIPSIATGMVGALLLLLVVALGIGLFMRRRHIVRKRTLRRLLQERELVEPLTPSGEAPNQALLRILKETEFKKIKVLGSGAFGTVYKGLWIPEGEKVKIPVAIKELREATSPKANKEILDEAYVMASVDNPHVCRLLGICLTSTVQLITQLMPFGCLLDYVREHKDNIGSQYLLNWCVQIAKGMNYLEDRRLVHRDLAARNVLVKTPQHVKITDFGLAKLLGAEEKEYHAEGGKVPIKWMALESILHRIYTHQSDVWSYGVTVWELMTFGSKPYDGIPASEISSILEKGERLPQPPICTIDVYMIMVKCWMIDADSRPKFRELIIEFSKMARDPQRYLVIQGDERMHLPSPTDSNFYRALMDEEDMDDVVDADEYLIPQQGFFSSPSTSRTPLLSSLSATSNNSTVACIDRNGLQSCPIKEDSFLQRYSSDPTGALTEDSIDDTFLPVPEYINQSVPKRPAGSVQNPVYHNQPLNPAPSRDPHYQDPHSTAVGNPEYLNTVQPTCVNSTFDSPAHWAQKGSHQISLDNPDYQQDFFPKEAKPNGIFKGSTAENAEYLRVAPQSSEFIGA

## C=CC(=O)N[C@H]1C=C(C)c2c(-c3cnc4ccccc4c3)c3c(N)ncnc3n2C1 [Compound 1, (S)—N-(4-amino-6-methyl-5-(quinolin-3-yl)-8,9-dihydropyrimido[5,4-b]indolizin-8-yl)acrylamide]
[1]; L718Q+ex19del+T790M or L718Q+L858R+T790M
  potency in inhibiting the phosphorylation of mutant EGFRs: intensive cellular potency
[1]; [15]
  absolute activity and selectivity over baseline mutations compared with osimertinib, erlotinib and Afatinib: higher
[2]
  GI50: > 3000 nM
WT EGFR
  inhibition against WT EGFR: moderate inhibition
[3]; dose-dependent
  tumor growth inhibition: significant tumor growth inhibition effects
[3]; mouse, in vivo
  body weight loss, fecal abnormalities, or skin abnormalities: not effected at a cost of body weight loss, fecal abnormalities, or skin abnormalities
[4]
  potency in inhibiting the phosphorylation of mutant EGFRs: intensive cellular potency
[5]
  IC50: 597 nM
[6]; G719A+T790M, L861Q+T790M
  inhibition against EGFRs harboring T790M and either exon 18 or exon 21 mutations: intensive inhibition
[6]; [16]
  activity compared with erlotinib and osimertinib: higher
  potency in inhibiting the phosphorylation of mutant EGFRs: intensive cellular potency
[7]
  inhibitory effect on proliferation: more potent and selective inhibitory effect
[8]; L792H, L792F, L792Y each with ex19del+T790M or L858R+T790M
  potency in inhibiting the phosphorylation of mutant EGFRs: intensive cellular potency
[8]; [15]
  absolute activity and selectivity over baseline mutations compared with osimertinib, erlotinib and Afatinib: higher
[9]; human lung cancer xenografts harboring EGFR exon 20 insertions
  in vivo inhibitory effect on the phosphorylation of EGFR and its downstream effectors: potent and durable in vivo inhibitory effect
[9]; in vivo
  effect on skin tissue with WT EGFR: spares skin tissue with WT EGFR
[10]
  inhibition of in vitro phosphorylation activity of EGFR and EGFR mutants: inhibited
[11]; C1D1 to C1D15, listed as CLN-081
  change in systemic exposure levels / drug accumulation: Minimal to no increase; also recorded: no evidence of meaningful drug accumulation
[11]; across the dose range tested
  dose proportionality of Cmax and AUC: dose proportional increase
[11]; human, plasma, oral, 100 mg, 100 mg BID, patient 0102-001, read-out: T1/2 (converted)
  half-life: 3.6 h
[11]; human, plasma, oral, 100 mg, 100 mg BID, patient 0104-005, read-out: T1/2 (converted)
  half-life: 6.1 h
[11]; human, plasma, oral, 100 mg, 100 mg BID, patient 0701-001, read-out: T1/2 (converted)
  half-life: 3.6 h
[11]; human, plasma, po, oral BID, read-out: mean average terminal phase elimination half-life (t1/2) (converted)
  half-life: ~4 h
[11]; human, plasma, oral, 30-100 mg BID
  Tmax: 0.5 to 2 h
[11]; [17]
  uAUC*: 957 ng·h/mL
  uCmax: 260 ng/mL
[11]; [18]
  uAUC*: 1213 ng·h/mL
  uCmax: 274 ng/mL
[11]; [19]
  uAUC*: 1353 ng·h/mL
  uCmax: 418 ng/mL
[11]; unbound, 30 to 100 mg BID
  AUC0-8hr versus dose: generally increase with increasing dose
  Cmax versus dose: generally increase with increasing dose
[12]; 4 patients
  patients with treatment-related discontinuations: 9%
[12]; 5 patients
  patients requiring dose reductions: 11%
[12]; 8/45 patients, all dose levels
  patients who experienced Gr ≥3 TRAEs: 18%
[12]; 20/45 patients, all dose levels
  patients who experienced grade ≥3 AEs: 44%
[12]; [20]
  patients who experienced a treatment related adverse event (TRAE), irrespective of grade: 98%
  patients who experienced an adverse event (AE), irrespective of grade or attribution: 98%
[12]; Gr 3 diarrhea at 150 mg BID, the highest dose cohort, listed as CLN-081
  patients with dose limiting toxicity (DLT): One and one
[12]; N = 45
  Grade ≥3 TRAEs in all patients: Anemia, %: 9%
  Grade ≥3 TRAEs in all patients: Diarrhea, %: 2%
  Grade ≥3 TRAEs in all patients: Increased ALT, %: 4%
  Grade ≥3 TRAEs in all patients: Increased AST, %: 4%
  Grade ≥3 TRAEs in all patients: Increased Amylase, %: 2%
  Grade ≥3 TRAEs in all patients: Neutropenia, %: 2%
  Grade ≥3 TRAEs in all patients: Stomatitis, %: 2%
[12]; all dose levels
  patients with Gr ≥3 treatment-related rash: no patients
  patients with treatment-related Gr 3 diarrhea: one
[12]; any grade, N = 45
  TRAEs in ≥15% of patients: Anemia, %: (18) %
  TRAEs in ≥15% of patients: Diarrhea, %: (22) %
  TRAEs in ≥15% of patients: Dry Skin, %: (16) %
  TRAEs in ≥15% of patients: Increased AST, %: (16) %
  TRAEs in ≥15% of patients: Nausea, %: (18) %
  TRAEs in ≥15% of patients: Paronychia, %: (22) %
  TRAEs in ≥15% of patients: Rash, %: (76) %
  TRAEs in ≥15% of patients: Stomatitis, %: (18) %
[12]; in vivo
  diarrhea compared to historical experience with other EGFR inhibitors: reduced frequency and severity of diarrhea
  most common AEs, regardless of attribution or grade: rash, anemia and diarrhea
  safety profile: acceptable safety profile
  safety profile at efficacious dose levels compared to other TKIs targeting EGFR exon 20 insertion mutations: superior safety profile
[12]; patient had also experienced pneumonitis on osimertinib
  patients who discontinued due to treatment-related Gr 2 pneumonitis: one
[13]; T790M in addition to either G719A or L861Q
  selectivity index compared to osimertinib: higher
[13]
  selectivity index (ratio between IC50 for WT EGFR and mutant EGFR cell lines) compared to erlotinib and afatinib: much higher
[14]; V769_D770insASV, D770_N771insSVD, H773_V774insNPH, dose-dependent
  antitumor efficacy: striking tumor growth inhibition and tumor regression effects
[14]; nude mice transplanted with NCI-H1975 EGFR D770_N771insSVD
  antitumor efficacy of twice-daily versus once-daily administration: not inferior
